# Test results from US10017481B2, “Conformationally constrained, fully synthetic macrocyclic compounds” (POLYPHOR AG, priority 2012, dated 2018).
# pIC50: −log10 of the molar value. Where two headings read alike, the source gives them in different places.
# Columns and labels:
# [1] = test system: S. aureus ATCC 29213, ATCC 25923, DSM 11729, DSM 46320, S. aureus 39; assay: Antimicrobial assay, broth microdilution MIC, S. aureus strains; type: cell-based; conditions: Staphylococcus aureus
# Procedure: (§1) The antimicrobial activities of the compounds were determined in 96-well plates (Greiner, polystyrene) by the standard NCCLS broth microdilution method (National Committee for Clinical Laboratory Standards 1993. Methods for dilution antimicrobial susceptibility tests for bacteria that grow aerobically, 3rd ed. Approved standard M7-A6. National Committee for Clinical laboratory standards, Wayne, Pa.) with slight modifications. Inocula of the microorganisms were diluted into Mueller-Hinton II (MH, cation adjusted) broth+0.002% P-80 and compared with a 0.5 McFarland standard to give appr. 10^6 colony forming units (CFU)/mL. Aliquots (50 μl) of inoculate were added to 50 μl of MH broth+0.002% P-80 containing the compounds in serial two-fold dilutions. The following microorganisms were used to determine antibiotic selectivity of the compounds: S. pneumoniae DSM 20566 11A11, 3313A6, 704CG4B21, 82BERG72; S. aureus ATCC 29213, ATCC 25923, DSM 11729, DSM 46320, S. aureus 39. Antimicrobial activities of the compounds were expressed as the minimal inhibitory concentration (MIC) in μg/mL at which no visible growth was observed after 18-20 hours of incubation at 36° C.
# [2] = test system: S. pneumoniae DSM 20566 11A11, 3313A6, 704CG4B21, 82BERG72; assay: Antimicrobial assay, broth microdilution MIC, S. pneumoniae strains; type: cell-based; conditions: Streptococcus pneumoniae, DSM20566
# Procedure: as §1
# [3] = biological target: T1, Human recombinant cathepsin S (Homo sapiens, UniProt P25774); assay: Cathepsin S (CatS) enzyme assay; type: biochemical
# T1 construct: host or cells: murine myeloma NS0 cells
# Procedure: 2. Enzyme Assays for the Peptidase Endothelin Converting Enzyme-1 (ECE-1) and for the Cysteine Protease Cathepsin S (CatS)
# The assays were performed according to provider's (Ricerca Biosciences, LLC) protocols which in turn are based on literature procedures (for ECE-1 cf.: O. Valdenaire et al., Eur. J. Biochem. 1999, 264, 341-349; F. D. Russell, A. P. Davenport, Circ. Res. 1999, 84, 891-896; and for CatS: G P Shi et al., J. Biol. Chem. 1992, 267, 7258-62; D Brömme et al., J. Biol. Chem. 1993 268, 4832-4838.).
# Human recombinant cathepsin S expressed in a murine myeloma NS0 cells is used. Test compound and/or vehicle is preincubated with 0.1 μg/ml enzyme in modified acetate buffer pH 4.5 for 15 minutes at 25° C. The reaction is initiated by addition of […] Z-Leu-Arg-AMC for another 30 minutes' incubation period. Determination of the amount of AMC formed is read spectrofluorimetrically at 360 nm/465 nm. […]
# IC50 values were determined by a non-linear, least squares regression analysis using MathIQ™ (ID Business Solutions Ltd., UK). Inhibition constants K were calculated according to the equation of Cheng and Prusoff (Y. Cheng, W. H. Prusoff, Biochem. Pharmacol. 1973, 22, 3099-3108) using the observed IC50 of the tested compound, the concentration of radioligand employed in the assay, and the historical values for the KD of the ligand. The Hill coefficient (nH), defining the slope of the competitive binding curve, was calculated using MathIQ™.
# [4] = Plasma stability assay, human plasma; type: in vitro ADME; conditions: for Plasma Stability 240 min hum [% remain.]: human plasma, 10 μM, 37° C.; for half-life at 10 μM: human, plasma
# Procedure, shortened: (§2)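 Compounds at 10 μM were incubated at 37 °C in triplicate in sodium citrate-stabilized plasma (human, or pooled mixed-gender CD-1 mouse). Samples taken at 0–240 min were acetonitrile-quenched and analyzed by HPLC/MS/MS. Remaining peak area as % of t0 gave endpoint stability (%) and half-life (min).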
# [5] = Plasma stability assay, CD-1 mouse plasma; type: in vitro ADME; conditions: for Plasma Stability 240 min mouse/(rat) [% remain.]: CD-1 mouse plasma, 10 μM, 37° C.; for half-life at 10 μM: both sexes, CD-1, mouse, plasma
# Procedure, shortened: as §2
# [6] = Metabolic stability assay, human liver microsomes; type: in vitro ADME; conditions: human microsomes, 10 μM, 37° C.; for half-life at 10 μM: both sexes, liver microsomes, 1 mg/ml protein, read-out: Metabolic Stability T ½ [min] hum
# Procedure, shortened: (§3)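 Pooled human (50 donors, mixed gender) or CD-1 mouse microsomes at 1 mg/mL protein, 10 μM compound, 100 mM potassium phosphate with NADPH-regenerating system, 37 °C in duplicate. Samples at 0, 5, 10, 20, 60 min analysed by HPLC/MS/MS; turnover as % of 0-min value and T½ (min) calculated.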
# [7] = Metabolic stability assay, CD-1 mouse microsomes; type: in vitro ADME; conditions: CD-1 mouse microsomes, 10 μM, 37° C.; for half-life at 10 μM: both sexes, 1 mg/ml protein, read-out: Metabolic Stability T ½ [min] mouse/(rat)
# Procedure, shortened: as §3
# [8] = strain ATCC 25923, read-out: MIC S. aureus ATCC 25923
# [9] = strain ATCC 29213, read-out: MIC S. aureus ATCC 29213
# [10] = strain DSM 11729, read-out: MIC S. aureus DSM 11729
# [11] = strain S. aureus 39, read-out: MIC S. aureus 39
# [12] = strain DSM 20566 (Table 32.7), read-out: MIC S. pneumoniae DSM 20566
# [13] = strain 11A11, read-out: MIC S. pneumoniae 11A11
# [14] = strain 82BERG72, read-out: MIC S. pneumoniae 82BERG72
# [15] = strain 704CG4B21, read-out: MIC S. pneumoniae 704CG4B21
# [16] = strain 3313A6, read-out: MIC S. pneumoniae 3313A6
# [17] = strain DSM 20566 (Table 32.8), read-out: MIC S. pneumoniae DSM 20566
# T1 sequence (P25774 115-331): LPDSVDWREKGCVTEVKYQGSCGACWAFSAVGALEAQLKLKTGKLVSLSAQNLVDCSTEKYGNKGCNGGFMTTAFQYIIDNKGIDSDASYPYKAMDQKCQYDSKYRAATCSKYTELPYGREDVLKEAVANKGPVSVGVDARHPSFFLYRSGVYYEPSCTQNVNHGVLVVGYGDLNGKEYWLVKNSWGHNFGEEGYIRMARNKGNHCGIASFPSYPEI
smiles,measurement,setting,value
"CC(C)(C)OC(=O)N[C@H]1C[C@H]2COc3cccc(c3)-c3ccccc3C(=O)NCC[C@@H](N)C(=O)N2C1 [Ex. 2, tert-butyl N-[(12R,16S,18S)-12-amino-8,13-dioxo-20-oxa-9,14-diazatetracyclo[19.3.1.0^2,7.0^14,18]pentacosa-1(25),2,4,6,21,23-hexaen-16-yl]carbamate]",MIC,[1]; [8],16 µg/mL
same,MIC,[1]; [9],8 to 16 µg/mL
same,MIC,[1]; [10],8 to 16 µg/mL
same,MIC,[1]; [11],4 µg/mL
same,MIC,[2]; [12],8 µg/mL
"CN(C)CC(=O)N[C@H]1CCCN(C)C(=O)c2cccc(c2)-c2ccccc2OC[C@@H]2C[C@H](NC(=O)Cc3ccc4ccccc4c3)CN2C1=O [Ex. 20, 2-(dimethylamino)-N-[(10S,12S,16S)-20-methyl-12-{[2-(2-naphthyl)acetyl]amino}-15,21-dioxo-8-oxa-14,20-diazatetracyclo[20.3.1.0^2,7.0^10,14]hexacosa-1(26),2,4,6,22,24-hexaen-16-yl]acetamide]",pIC50,[3],4.83
same,inhibition at 10 µM,[3]; 10 μM compound,45%
"CN1CCC[C@H](NS(=O)(=O)C2CC2)C(=O)N2C[C@@H](NC(=O)Cc3ccc4ccccc4c3)C[C@H]2COc2ccccc2-c2cccc(c2)C1=O [Ex. 21, N-[(10S,12S,16S)-16-[(cyclopropylsulfonyl)amino]-20-methyl-15,21-dioxo-8-oxa-14,20-diazatetracyclo[20.3.1.0^2,7.0^10,14]hexacosa-1(26),2,4,6,22,24-hexaen-12-yl]-2-(2-naphthyl)acetamide]",inhibition at 10 µM,[3]; 10 μM compound,75%
"CC(C)CC(=O)N[C@H]1CCCN(C)C(=O)c2cccc(c2)-c2ccccc2OC[C@@H]2C[C@H](NC(=O)Cc3ccc4ccccc4c3)CN2C1=O [Ex. 24, 3-methyl-N-[(10S,12S,16S)-20-methyl-12-{[2-(2-naphthyl)acetyl]amino}-15,21-dioxo-8-14,20-diazatetracyclo[20.3.1.0^2,7.0^10,14]hexacosa-1(26),2,4,6,22,24-hexaen-16-yl]butanamide]",% Inhibition at 10 μM,[3]; 10 μM compound,55%
"CCCC(=O)N[C@H]1CCCN(C)C(=O)c2cccc(c2)-c2ccccc2OC[C@@H]2C[C@H](NC(=O)Cc3ccc4ccccc4c3)CN2C1=O [Ex. 27, N-[(10S,12S,16S)-20-methyl-12-{[2-(2-naphthyl)acetyl]amino)-15,21-dioxo-8-oxa-14,20-diazatetracyclo[20.3.1.0^2,7.0^10,14]hexacosa-1(26),2,4,6,22,24-hexaen-16-yl]butanamide]",inhibition at 10 µM,[3]; 10 μM compound,50%
"CCCCC(=O)N[C@H]1CCCN(C)C(=O)c2cccc(c2)-c2ccccc2OC[C@@H]2C[C@H](NC(=O)Cc3ccc4ccccc4c3)CN2C1=O [Ex. 28, N-[(10S,12S,16S)-20-methyl-12-{[2-(2-naphthyl)acetyl]amino}-15,21-dioxo-8-oxa-14,20-diazatetracyclo[20.3.1.0^2,7.0^10,14]hexacosa-1(26),2,4,6,22,24-hexaen-16-yl]pentanamide]",inhibition at 10 µM,[3]; 10 μM compound,57%
"C[C@H]1COc2cccc(c2)-c2cccc(c2)C(=O)N(C)[C@H](C(=O)N2CCOCC2)CCC(=O)N1 [Ex. 87, (9S,14S)-9,15-dimethyl-14-(morpholinocarbonyl)-7-oxa-10,15-diazatricyclo [15.3.1.1^2,6]docosa-1(21),2(22),3,5,17,19-hexaene-11,16-dione]",Plasma Stability 240 min hum [% remain.],[4],100 % remain.
same,half-life at 10 μM,[4],> 240 min
same,Plasma Stability 240 min mouse/(rat) [% remain.],[5],90 % remain.
same,half-life at 10 μM,[5],> 240 min
same,half-life at 10 μM,[6],27 min
same,Metabolic Stability 60 min hum [% remain.],[6],17 % remain.
same,Metabolic Stability 60 min mouse/(rat) [% remain.],[7],63 % remain.
same,half-life at 10 μM,[7],60 min
"C[C@H]1COc2cccc(c2)-c2cccc(c2)C(=O)N(C)[C@H](C(=O)NCc2ccc3ccccc3c2)CCC(=O)N1 [Ex. 89, (9S,14S)-9,15-dimethyl-N-(2-naphthylmethyl)-11,16-dioxo-7-oxa-10,15-diazatricyclo[15.3.1.1^2,6]docosa-1(21),2(22),3,5,17,19-hexaene-14-carboxamide]",Plasma Stability 240 min hum [% remain.],[4],100 % remain.
same,half-life at 10 μM,[4],> 240 min
same,Plasma Stability 240 min mouse/(rat) [% remain.],[5],76 % remain.
same,half-life at 10 μM,[5],> 240 min
same,half-life at 10 μM,[6],13 min
same,Metabolic Stability 60 min hum [% remain.],[6],8 % remain.
same,Metabolic Stability 60 min mouse/(rat) [% remain.],[7],2 % remain.
same,half-life at 10 μM,[7],10 min
"CC(C)(C)OC(=O)N[C@@H]1C[C@H]2COc3cccc(c3)-c3cncc(c3)C(=O)NCCNCC(=O)N2C1 [Ex. 91, tert-butyl N-[(9S,11R)-14,20-dioxo-7-oxa-13,16,19,23-tetraazatetracyclo[19.3.1.1^2,6.0^9,13]hexacosa-1(25),2(26),3,5,21,23-hexaen-11-yl]carbamate]",MIC,[1]; [8],4 µg/mL
same,MIC,[1]; [9],2 to 4 µg/mL
same,MIC,[1]; [10],2 µg/mL
same,MIC,"[1]; strain DSM 46320, read-out: MIC S. aureus DSM 46320",4 µg/mL
same,MIC,[1]; [11],8 µg/mL
same,MIC,[2]; [12],> 16 µg/mL
"N[C@H]1C[C@H]2COc3cc(F)cc(c3)-c3csc(c3)C(=O)N[C@H](C(=O)Nc3ccccc3)COCCCCC(=O)N2C1 [Ex. 247, (8S,18S,20S)-18-amino-25-fluoro-6,15-dioxo-N-phenyl-10,22-dioxa-4-thia-7,16-diazatetracyclo[21.3.1.1^2,5.0^16,20]octacosa-1(27),2,5(28),23,25-pentaene-8-carboxamide]",MIC,[2]; [13],16 µg/mL
same,MIC,[2]; [14],8 µg/mL
same,MIC,[2]; [15],16 µg/mL
same,MIC,[2]; [16],16 µg/mL
same,MIC,[2]; [17],16 µg/mL
"N[C@H]1C[C@H]2COc3cc(F)cc(c3)-c3csc(c3)C(=O)N[C@H](C(=O)Nc3ccc(Cl)cc3)COCCCCC(=O)N2C1 [Ex. 257, (8S,18S,20S)-18-amino-N-(4-chlorophenyl)-25-fluoro-6,15-dioxo-10,22-dioxa-4-thia-7,16-diazatetracyclo[21.3.1.1^2,5.0^16,20]octacosa-1(27),2,5(28),23,25-pentaene-8-carboxamide]",MIC,[2]; [13],8 µg/mL
same,MIC,[2]; [14],2 µg/mL
same,MIC,[2]; [15],8 µg/mL
same,MIC,[2]; [16],8 µg/mL
same,MIC,[2]; [17],8 µg/mL
"Cc1cccc(NC(=O)[C@@H]2COCCCCC(=O)N3C[C@@H](N)C[C@H]3COc3cc(F)cc(c3)-c3csc(c3)C(=O)N2)c1 [Ex. 259, (8S,18S,20S)-18-amino-25-fluoro-N-(3-methylphenyl)-6,15-dioxo-10,22-dioxa-4-thia-7,16-diazatetracyclo[21.3.1.1^2,5.0^16,20]octacosa-1(27),2,5(28),23,25-pentaene-8-carboxamide]",MIC,[2]; [13],16 µg/mL
same,MIC,[2]; [14],4 µg/mL
same,MIC,[2]; [15],8 µg/mL
same,MIC,[2]; [16],8 µg/mL
same,MIC,[2]; [17],8 µg/mL
